These results are taken from patent US6277851A, “Bicyclic amino-pyrazinone compounds” (priority 1999, dated 2001).

The test system of experiment [1] is human plasma. The experiment is described as follows: Anti-coagulant activity, thrombin time (TT) in human plasma. The format is biochemical. As to conditions: 37° C. On the procedure:
(§1) In order to evaluate the anti-coagulant activity of the compounds of the invention, the thrombin time (TT) and activated cephalin time (ACT) were determined from human plasma samples. An ST4 coagulometer (Diagnostica Stago, France) was used. Plasma, deficient in platelets and lyophilised (Stago), is taken up in distilled water. The TT is obtained using the reagent Prest Thrombin and the ACT using the reagent PTT Automate […]. […] Under those conditions, the TT is of the order of 18 seconds and the ACT is of the order of 12 seconds. The activity of an antagonist is evaluated by its capacity to prolong the TT and the ACT relative to the control. The effect of the inhibitors is expressed by the concentration in μM that doubles the coagulation time (Ctt2).

Another experiment addresses T1, human thrombin (Homo sapiens, UniProt P00734).
T1 construct: purchased Sigma
The experiment is described as follows: Inhibition of human thrombin (fibrinogen substrate, fibrin formation). As to conditions: human thrombin 0.7 nM, 10 min preincubation, 20° C., pH 7.4. The experiment is classed as biochemical. On the procedure:
Inhibitors, enzymes and substrates are diluted in the same buffer ([…] phosphate buffer, pH 7.4, containing 0.12 M sodium chloride and 0.05% of bovine serum albumin) and then distributed on a polystyrene microtitre plate in a volume of 50 μl. The fibrin formed by the thrombin or by the paranitroanilide released by the action of the serine protease is measured using a spectrophotometer at 405 nm after from 15 to 30 minutes' reaction at 20° C. Table 2 below gives in nM the concentration of the compounds that inhibits 50% of the enzymatic activity (IC50) of the thrombin compared with the control without product.

Experiment [2] has as its system human plasma. The experiment is described as follows: Anti-coagulant activity, activated cephalin time (ACT) in human plasma. The experiment is classed as biochemical. As to conditions: 37° C. On the procedure:
as §1

Another experiment has as its target t-PA (Homo sapiens, UniProt P00750). Briefly: Inhibition of fibrinolysis serine proteases: t-PA. The format is biochemical. As to conditions: fibrinolysis protease. On the procedure: (§2) Inhibitors, enzymes and substrates are diluted in the same buffer ([…] phosphate buffer, pH 7.4, containing 0.12 M sodium chloride and 0.05% of bovine serum albumin) and then distributed on a polystyrene microtitre plate in a volume of 50 μl. The fibrin formed by the thrombin or by the paranitroanilide released by the action of the serine protease is measured using a spectrophotometer at 405 nm after from 15 to 30 minutes' reaction at 20° C. Table 3 below gives in nM the concentration of the compounds that inhibits 50% of the enzymatic activity (IC50) of the fibrinolysis proteases.

The next experiment has as its target uPA (Homo sapiens, UniProt P00749). Briefly: Inhibition of fibrinolysis serine proteases: uPA. The experiment is classed as biochemical. The conditions noted are these: fibrinolysis protease. On the procedure:
as §2

The subject of experiment [3] is dog plasma. The experiment is described as follows: Anti-coagulant activity after administration per os to dogs, ACT. The conditions noted are these: p.o., 10 mg/kg. The format is in vivo. The method, then:
(§3) […] The coagulation times (TT, ACT) are determined from dog plasma samples 10 minutes before and 30 min, 1 hour, 2 hours, 4 hours and 6 hours after administration of the products.

For the next experiment, the target named is T2, human plasmin (Homo sapiens, UniProt P00747).
T2 construct: purchased Stago
Briefly: Inhibition of fibrinolysis serine proteases: plasmin. The format is biochemical. The conditions noted are these: human plasmin 2 nM, substrate S 2403 0.50 mM, 20° C., pH 7.4. The method, then: as §2

In experiment [4] the test system is dog plasma. The experiment is described as follows: Anti-coagulant activity after administration per os to dogs, TT. The conditions noted are these: p.o., 10 mg/kg. The format is in vivo. The method, then: as §3

t-PA, sequence (P00750 36-562): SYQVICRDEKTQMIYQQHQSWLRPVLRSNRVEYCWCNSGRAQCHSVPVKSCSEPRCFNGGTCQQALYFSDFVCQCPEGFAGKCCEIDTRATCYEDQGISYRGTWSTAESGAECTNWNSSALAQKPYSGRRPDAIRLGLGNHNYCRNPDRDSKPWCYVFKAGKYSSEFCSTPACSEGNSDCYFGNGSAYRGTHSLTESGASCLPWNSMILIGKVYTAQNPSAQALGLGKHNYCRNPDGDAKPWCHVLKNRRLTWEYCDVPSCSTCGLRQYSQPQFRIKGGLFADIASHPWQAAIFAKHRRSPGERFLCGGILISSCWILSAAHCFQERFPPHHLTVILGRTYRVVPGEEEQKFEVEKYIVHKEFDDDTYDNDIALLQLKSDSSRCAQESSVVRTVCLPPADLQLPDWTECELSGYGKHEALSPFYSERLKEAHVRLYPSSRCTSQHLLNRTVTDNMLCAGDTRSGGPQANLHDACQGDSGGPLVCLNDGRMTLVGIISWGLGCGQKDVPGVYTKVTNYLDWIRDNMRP
T2 sequence (P00747 581-810 limits assumed): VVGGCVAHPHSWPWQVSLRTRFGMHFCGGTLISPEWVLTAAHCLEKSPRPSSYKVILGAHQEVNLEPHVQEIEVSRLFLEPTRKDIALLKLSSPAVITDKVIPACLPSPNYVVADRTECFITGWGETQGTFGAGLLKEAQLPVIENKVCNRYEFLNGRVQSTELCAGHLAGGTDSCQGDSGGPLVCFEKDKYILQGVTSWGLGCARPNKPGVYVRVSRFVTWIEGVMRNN

As for `COc1ccc(C(CNc2ncc3n(c2=O)C(C(=O)NCc2ccc(N)nc2C)CC3)c2ccc(OC)cc2)cc1.Cl.Cl` (centres unmarked) [Example 98, N-[(6-Amino-2-methyl-3-pyridyl)-methyl]-3-[2,2-bis-(4-methoxy-phenyl)-ethylamino]-4-oxo-4,6,7,8-tetrahydropyrrolo[1,2-a]pyrazine-6-carboxamide dihydrochloride], the “TT Ctt2 (concentration that doubles the coagulation time)” value in the experiment with human plasma [1] worked out at 0.33 µM. In addition, the IC50 against human thrombin was 0.008 µM; against t-PA it was greater than 33 µM; against uPA, greater than 33 µM; against human plasmin, greater than 33 µM. In the experiment with human plasma [2], the “ACT Ctt2 (concentration that doubles the coagulation time)” value worked out at 3.54 µM. In addition, the “Maximum ACT increase (number of times by which the initial time has been increased)” value in the experiment with dog plasma [3] is reported as 1.4 times. Further, in the experiment with dog plasma [4], the “Maximum TT increase (number of times by which the initial time has been increased)” value stood at 6.1 times.

The IC50 is the midpoint of a concentration-inhibition curve. Read a low IC50 as higher potency.
